From article PMC11406361, “Several orphan solute carriers functionally identified as organic cation transporters: Substrates specificity compared with known cation transporters” (The Journal of Biological Chemistry, 2024)
Peptide text beside a SMILES is read from it.

molecular target: SLC35G3 (Homo sapiens, UniProt Q8N808); test: Uptake ratio screen, SLC35G3-overexpressing HEK293 over empty vector cells; format: cell-based; parameters: by amplifying the entire gene-of-interest within the HEK293 genome via a long-range PCR; settings: not given
Sequence (Q8N808 whole entry): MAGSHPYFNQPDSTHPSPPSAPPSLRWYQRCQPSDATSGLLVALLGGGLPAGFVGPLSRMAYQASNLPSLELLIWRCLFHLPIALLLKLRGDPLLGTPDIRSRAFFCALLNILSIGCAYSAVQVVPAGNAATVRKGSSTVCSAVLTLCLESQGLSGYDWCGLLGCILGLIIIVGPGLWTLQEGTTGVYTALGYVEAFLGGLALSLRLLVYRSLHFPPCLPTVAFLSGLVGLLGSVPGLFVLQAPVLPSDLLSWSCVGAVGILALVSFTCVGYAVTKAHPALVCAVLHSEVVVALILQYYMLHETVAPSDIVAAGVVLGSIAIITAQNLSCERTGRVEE

In order of falling “Uptake data for SLC35G3, mean value (fold-increase over empty vector control)” value:
1. COc1cc(CCN)cc(OC)c1OC [Mescaline]  1.34
2. CNC1(c2ccccc2Cl)CCCCC1=O (stereo not shown) [Ketamine]  1.28
3. CNCC[C@H](Oc1cccc2ccccc12)c1cccs1 [Duloxetine]  1.26
4. C[C@H](N)[C@@H](O)c1ccccc1 [Cathine ((+)-Norpseudoephedrine), (+)-Norpseudoephedrine]  1.21

same assay, conditions: 2.5 μM substrate, 2 min, HEK293

In order of rising “Uptake data for SLC35G3, mean value (fold-increase over empty vector control)” value:
1. C[N+](C)(C)CC(=O)O [Betaine]  0.84
2. NCC1(CC(=O)O)CCCCC1 [Gabapentin]  0.90
3. COC(=O)[C@H](Cc1ccccc1)NC(=O)[C@@H](N)CC(=O)O [Aspartame] (H-Asp-Phe-OMe)  0.92
4. N[C@@H]1CON=C1O [Cycloserine (D-), Cycloserine]  0.93
5. CC[C@@H](CO)NCCN[C@@H](CC)CO [Ethambutol]  0.99
6. C[C@H]1COc2c(N3CCN(C)CC3)c(F)cc3c(=O)c(C(=O)O)cn1c23 [Levofloxacin]  1.05
7. CN[C@@H]1CCc2[nH]c3ccc(C(N)=O)cc3c2C1 [Frovatriptan (R-), Frovatriptan]  1.06
8. CN(C)CCOC(C)(c1ccccc1)c1ccccn1 (stereo not shown) [Doxylamine]  1.10
9. CNC[C@H](O)c1cccc(O)c1 [Phenylephrine]  1.10
10. N[C@@H]1CON=C1O [Cycloserine (L-), Cycloserine]  1.11
11. COCCn1c2c([n+](Cc3cnccn3)c1C)C(=O)c1ccccc1C2=O [YM155]  1.11
12. CC(Cc1ccc(O)cc1)NCC(O)c1cc(O)cc(O)c1 (stereo not shown) [Fenoterol]  1.19
13. CC12CC3CC(C)(C1)CC(N)(C3)C2 [Memantine]  1.19
14. CNCC(c1ccc(OC)cc1)C1(O)CCCCC1 (stereo not shown) [N-Desmethylvenlafaxine]  1.20
15. O=C1CCc2ccc(OCCCCN3CCN(c4cccc(Cl)c4Cl)CC3)cc2N1 [Aripiprazole]  1.22
16. CC(C)NCC(O)COc1ccc(COCCOC(C)C)cc1 (stereo not shown) [Bisoprolol]  1.24
17. COc1cc(Cc2cnc(N)nc2N)cc(OC)c1OC [Trimethoprim]  1.24
18. CNCC[C@@H](Oc1ccccc1C)c1ccccc1 [Atomoxetine]  1.26
19. COCCOC(=O)C1=C(C)NC(C)=C(C(=O)OC(C)C)C1c1cccc([N+](=O)[O-])c1 (stereo not shown) [Nimodipine]  1.26
20. O=C(O[C@H]1CN2CCC1CC2)N1CCc2ccccc2[C@@H]1c1ccccc1 [Solifenacin]  1.26
21. C[C@@H](O)[C@H]1C(=O)N2C(C(=O)O)=C(S[C@@H]3CN[C@H](C(=O)N(C)C)C3)[C@H](C)[C@H]12 [Meropenem]  1.27
22. CC(C)NCC(O)COc1cccc2ccccc12 (stereo not shown) [Propranolol]  1.27
23. CC(C)(C)c1ccc(C(O)CCCN2CCC(C(O)(c3ccccc3)c3ccccc3)CC2)cc1 (stereo not shown) [Terfenadine]  1.28
24. CC(NC(C)(C)C)C(=O)c1cccc(Cl)c1 (stereo not shown) [Bupropion]  1.29
25. COc1ccc2c(c1)N(C[C@H](C)CN(C)C)c1ccccc1S2 [Levomepromazine]  1.30
26. Fc1ccc([C@@H]2CCNC[C@H]2COc2ccc3c(c2)OCO3)cc1 [Paroxetin]  1.30
27. CNCCCN1c2ccccc2CCc2ccccc21 [Desipramine]  1.31
28. CCN(CC)C(=O)C1(c2ccccc2)CC1CN (stereo not shown) [Milnacipran]  1.31
29. COc1ccc(OC)c(C(O)CNC(=O)CN)c1 (stereo not shown) [Midodrine]  1.33
30. NC(=O)C1(N2CCCCC2)CCN(CCCC(=O)c2ccc(F)cc2)CC1 [Pipamperone]  1.33
31. C[C@H]1c2cccc(O)c2C(=O)C2=C(O)[C@]3(O)C(=O)C(C(N)=O)=C(O)[C@@H](N(C)C)[C@@H]3[C@@H](O)[C@@H]21 [Doxycycline]  1.34
32. COc1c(N2C[C@@H]3CCCN[C@@H]3C2)c(F)cc2c(=O)c(C(=O)O)cn(C3CC3)c12 [Moxifloxacin]  1.34
33. C[N+]1(CC2CC2)CC[C@]23c4c5ccc(O)c4O[C@H]2C(=O)CC[C@@]3(O)[C@H]1C5 (stereo partly shown) [Methylnaltrexon]  1.36
34. O=C1c2cccc3c2[C@H](CCC3)CN1[C@@H]1CN2CCC1CC2 [Palonosetron]  1.36
35. OCCOCCN1CCN(C2=Nc3ccccc3Sc3ccccc32)CC1 [Quetiapine]  1.37
36. CCCN(CCC)CCc1cccc2c1CC(=O)N2 [Ropinirole]  1.37
37. COc1ccccc1N1CCN(CCCNc2cc(=O)n(C)c(=O)n2C)CC1 [Urapidil]  1.37
38. CNCC1CCCCC1(O)c1cccc(OC)c1 (stereo not shown) [N-Desmethyltramadol]  1.38
39. CCOc1ccccc1OCCN[C@H](C)Cc1ccc(OC)c(S(N)(=O)=O)c1 [Tamsulosin]  1.39
40. CN(C)CCCN1c2ccccc2CCc2ccccc21 [Imipramine]  1.40
41. Cc1nc2n(c(=O)c1CCN1CCC(c3noc4cc(F)ccc34)CC1)CCCC2 [Risperidone]  1.41
42. CN1CCN(C2=Nc3cc(Cl)ccc3Nc3ccccc32)CC1 [Clozapine]  1.44
43. CCN(CC)CCNC(=O)c1cc(Cl)c(N)cc1OC [Metoclopramide]  1.44
44. CN(C)CCC=C1c2ccccc2CCc2ccccc21 [Amitriptyline]  1.47
45. O=C(CCCN1CCC(O)(c2ccc(Cl)cc2)CC1)c1ccc(F)cc1 [Haloperidol]  1.47
46. CC(CN(C)C)CN1c2ccccc2CCc2ccccc21 (stereo not shown) [Trimipramine]  1.47
47. C=CCN1C[C@H](C(=O)N(CCCN(C)C)C(=O)NCC)C[C@@H]2c3cccc4[nH]cc(c34)C[C@H]21 [Cabergoline]  1.49
48. COc1cc2nc(N3CCN(C(=O)C4CCCO4)CC3)nc(N)c2cc1OC (stereo not shown) [Terazosin]  1.49
49. OC(CCN1CCCCC1)(c1ccccc1)C1CC2C=CC1C2 (stereo not shown) [Biperiden]  1.50
50. COCCc1ccc(OCC(O)CNC(C)C)cc1 (stereo not shown) [Metoprolol]  1.52
51. CCN1CCCC1CNC(=O)c1cc(S(=O)(=O)CC)c(N)cc1OC (stereo not shown) [Amisulpride]  1.53
52. CCCCNc1ccc(C(=O)OCCN(C)C)cc1 [Tetracaine]  1.54
53. COc1ccc2c3c1O[C@H]1C[C@@H](O)C=C[C@@]31CCN(C)C2 [Galantamine]  1.57
54. CC(CCc1ccc(O)cc1)NCCc1ccc(O)c(O)c1 (stereo not shown) [Dobutamine]  1.58
55. CN[C@@H](C)[C@H](O)c1ccccc1 [Ephedrine]  1.59
56. COc1ccc(C(CN(C)C)C2(O)CCCCC2)cc1 (stereo not shown) [Venlafaxine]  1.60
57. NCCc1ccc(O)cc1 [Tyramine]  1.61
58. CCN(C)C(=O)Oc1cccc([C@H](C)N(C)C)c1 [Rivastigmine]  1.65
59. COc1ccc2c3c1O[C@H]1C(=O)CC[C@H]4[C@@H](C2)N(C)CC[C@]314 [Hydrocodone]  1.71
60. NC1Cc2cc3c(cc2C1)OCO3 [MDAI, 5,6-Methylenedioxy-2-aminoindane]  1.71
61. O=C1CC2(CCCC2)CC(=O)N1CCCCN1CCN(c2ncccn2)CC1 [Buspirone]  1.72
62. COc1ccc(CN(CCN(C)C)c2ccccn2)cc1 [Pyrilamine]  1.74
63. C#CCN[C@@H]1CCc2ccccc21 [Rasagiline]  1.90
64. C=C1CC[C@@]2(O)[C@H]3Cc4ccc(O)c5c4[C@@]2(CCN3CC2CC2)[C@H]1O5 [Nalmefen]  1.99
65. C=CCN1CC[C@]23c4c5ccc(O)c4O[C@H]2C(=O)CC[C@@]3(O)[C@H]1C5 [Naloxone]  2.01
66. Cc1cccc(C)c1NC(=O)C1CCCCN1C (stereo not shown) [Mepivacaine]  2.30
67. CCCCN1CCCCC1C(=O)Nc1c(C)cccc1C (stereo not shown) [Bupivacaine]  2.44
68. N[C@@H]1C[C@H]1c1ccccc1 (racemic) [Tranylcypromine]  2.56
69. CCOC(=O)[C@]1(c2ccccc2)CCC=C[C@H]1NC [Nortilidine]  2.87
